Reference: article PMC4336625 (ACS Chemical Biology, 2014)

Tests used:
[1] = target: T1, PLD1 (Homo sapiens, UniProt Q13393); type: cell-based; conditions: read-out: mammalian PLD1 IC50
T1 sequence (Q13393 1-1074): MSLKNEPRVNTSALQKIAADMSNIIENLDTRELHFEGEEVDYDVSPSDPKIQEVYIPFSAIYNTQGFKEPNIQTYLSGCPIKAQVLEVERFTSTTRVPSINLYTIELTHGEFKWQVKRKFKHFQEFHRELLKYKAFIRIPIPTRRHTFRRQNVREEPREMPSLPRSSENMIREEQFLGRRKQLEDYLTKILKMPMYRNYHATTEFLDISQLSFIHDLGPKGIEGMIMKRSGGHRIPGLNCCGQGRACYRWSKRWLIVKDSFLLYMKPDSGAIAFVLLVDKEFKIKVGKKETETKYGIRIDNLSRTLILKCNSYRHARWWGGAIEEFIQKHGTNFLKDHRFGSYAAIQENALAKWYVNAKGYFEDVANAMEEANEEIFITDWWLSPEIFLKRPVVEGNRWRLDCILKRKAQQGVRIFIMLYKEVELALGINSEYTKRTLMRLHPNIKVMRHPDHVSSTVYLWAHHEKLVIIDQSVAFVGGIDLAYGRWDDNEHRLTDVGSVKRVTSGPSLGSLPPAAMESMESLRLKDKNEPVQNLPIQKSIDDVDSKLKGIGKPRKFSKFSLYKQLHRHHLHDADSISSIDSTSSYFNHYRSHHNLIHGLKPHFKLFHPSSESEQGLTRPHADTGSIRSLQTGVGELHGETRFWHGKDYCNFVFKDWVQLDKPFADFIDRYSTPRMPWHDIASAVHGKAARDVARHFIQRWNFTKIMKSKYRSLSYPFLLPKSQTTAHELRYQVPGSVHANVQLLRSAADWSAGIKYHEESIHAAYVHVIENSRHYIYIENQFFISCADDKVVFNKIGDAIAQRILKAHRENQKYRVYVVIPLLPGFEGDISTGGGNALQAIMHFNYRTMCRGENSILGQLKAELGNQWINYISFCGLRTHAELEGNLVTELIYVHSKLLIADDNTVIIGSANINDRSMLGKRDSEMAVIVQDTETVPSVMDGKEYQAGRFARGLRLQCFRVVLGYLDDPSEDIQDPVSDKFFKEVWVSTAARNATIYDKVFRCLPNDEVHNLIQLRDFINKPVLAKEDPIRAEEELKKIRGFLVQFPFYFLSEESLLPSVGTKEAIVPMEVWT

[2] = target: T1, PLD1; conditions: cited from earlier work
[3] = target: PLD2 (Homo sapiens, UniProt O14939); conditions: cited from earlier work
[4] = target: recombinant human NAPE-PLD (Homo sapiens, UniProt Q6IQ20); assay: NAPE-PLD activity assay; type: biochemical; conditions: 20 μM
[5] = target: PldA (Pseudomonas aeruginosa, UniProt Q9HYC2); type: biochemical
Sequence of PldA (Q9HYC2 1-1099): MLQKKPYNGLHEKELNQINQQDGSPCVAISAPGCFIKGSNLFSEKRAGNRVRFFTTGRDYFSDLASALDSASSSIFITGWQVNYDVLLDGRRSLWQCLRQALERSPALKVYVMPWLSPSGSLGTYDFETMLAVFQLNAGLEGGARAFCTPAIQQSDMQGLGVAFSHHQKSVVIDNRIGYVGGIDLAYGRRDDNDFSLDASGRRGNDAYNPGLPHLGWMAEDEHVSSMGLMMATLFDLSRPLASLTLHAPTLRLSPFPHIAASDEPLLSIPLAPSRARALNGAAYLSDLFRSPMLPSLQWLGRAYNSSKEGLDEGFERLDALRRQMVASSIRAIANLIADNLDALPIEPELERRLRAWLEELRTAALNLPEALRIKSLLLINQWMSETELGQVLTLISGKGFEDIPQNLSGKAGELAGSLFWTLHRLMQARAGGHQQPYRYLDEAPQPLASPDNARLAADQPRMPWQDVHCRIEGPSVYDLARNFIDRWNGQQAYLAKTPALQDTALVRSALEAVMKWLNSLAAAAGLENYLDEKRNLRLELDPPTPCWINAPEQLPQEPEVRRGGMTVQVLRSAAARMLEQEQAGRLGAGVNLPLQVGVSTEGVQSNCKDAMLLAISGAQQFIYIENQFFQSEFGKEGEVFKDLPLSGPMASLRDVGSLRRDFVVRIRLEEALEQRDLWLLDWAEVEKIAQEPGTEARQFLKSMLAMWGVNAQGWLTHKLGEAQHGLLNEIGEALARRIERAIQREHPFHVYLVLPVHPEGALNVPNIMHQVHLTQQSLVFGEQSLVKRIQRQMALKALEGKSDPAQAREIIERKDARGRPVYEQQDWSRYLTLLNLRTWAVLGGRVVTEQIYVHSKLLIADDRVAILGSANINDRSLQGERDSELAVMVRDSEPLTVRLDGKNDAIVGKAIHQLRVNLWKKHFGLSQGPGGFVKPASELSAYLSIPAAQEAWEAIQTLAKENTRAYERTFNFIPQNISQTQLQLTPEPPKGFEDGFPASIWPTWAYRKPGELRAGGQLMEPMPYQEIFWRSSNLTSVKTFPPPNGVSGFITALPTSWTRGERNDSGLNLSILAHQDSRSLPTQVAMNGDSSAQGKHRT

Sequence of recombinant human NAPE-PLD (Q6IQ20 whole entry): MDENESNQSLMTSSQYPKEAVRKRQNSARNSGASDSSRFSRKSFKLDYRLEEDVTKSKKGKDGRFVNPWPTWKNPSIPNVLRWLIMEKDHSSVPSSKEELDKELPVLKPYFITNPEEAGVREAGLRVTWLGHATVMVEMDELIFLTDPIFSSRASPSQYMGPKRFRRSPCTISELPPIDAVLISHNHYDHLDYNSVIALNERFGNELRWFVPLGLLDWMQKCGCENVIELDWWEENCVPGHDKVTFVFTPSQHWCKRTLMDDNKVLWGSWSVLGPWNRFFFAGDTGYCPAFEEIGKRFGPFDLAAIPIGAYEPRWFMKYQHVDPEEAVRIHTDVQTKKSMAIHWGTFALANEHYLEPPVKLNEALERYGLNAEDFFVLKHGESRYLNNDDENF
Sequence of PLD2 (O14939 whole entry): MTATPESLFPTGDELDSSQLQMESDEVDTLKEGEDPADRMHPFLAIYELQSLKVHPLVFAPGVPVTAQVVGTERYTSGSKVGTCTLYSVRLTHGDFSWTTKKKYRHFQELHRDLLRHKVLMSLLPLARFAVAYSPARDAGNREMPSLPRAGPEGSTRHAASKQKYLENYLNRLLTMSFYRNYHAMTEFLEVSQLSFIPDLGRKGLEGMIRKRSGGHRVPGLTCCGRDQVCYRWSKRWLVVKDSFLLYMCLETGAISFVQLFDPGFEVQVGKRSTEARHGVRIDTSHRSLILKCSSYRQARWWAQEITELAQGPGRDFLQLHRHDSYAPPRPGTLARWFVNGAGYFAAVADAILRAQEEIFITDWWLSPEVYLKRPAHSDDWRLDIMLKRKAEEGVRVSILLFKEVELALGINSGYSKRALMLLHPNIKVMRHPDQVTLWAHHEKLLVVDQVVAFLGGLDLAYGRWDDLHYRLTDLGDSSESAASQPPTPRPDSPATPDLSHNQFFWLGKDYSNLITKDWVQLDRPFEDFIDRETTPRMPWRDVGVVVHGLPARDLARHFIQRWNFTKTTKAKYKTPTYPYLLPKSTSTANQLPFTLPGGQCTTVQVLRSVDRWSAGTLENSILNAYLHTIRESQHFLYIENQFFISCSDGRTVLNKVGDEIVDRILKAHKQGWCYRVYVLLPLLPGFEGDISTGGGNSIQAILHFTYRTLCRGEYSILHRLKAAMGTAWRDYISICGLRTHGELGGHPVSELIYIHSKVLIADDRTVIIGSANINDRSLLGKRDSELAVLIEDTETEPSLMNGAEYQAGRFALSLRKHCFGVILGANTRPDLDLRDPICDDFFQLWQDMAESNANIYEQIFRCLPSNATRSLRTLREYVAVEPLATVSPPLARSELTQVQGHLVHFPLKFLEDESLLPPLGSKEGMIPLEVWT

CC/C(=C(\c1ccccc1)c1ccc(OCCN(C)C)cc1)c1ccccc1 [Compound 8, tamoxifen]
IC50 [1]: > 20 µM | PLD1 IC50 [2]: no effect | PLD2 IC50 [3]: stimulated

O=C(c1ccc(OCCN2CCCCC2)cc1)c1c(-c2ccc(O)cc2)sc2cc(O)ccc12 [Compound 7, raloxifene]
inhibition of NAPE-PLD activity, single point [4]: not to inhibit | fold more potent at PldA than inhibitors 2, 3 and 1 [5]: 5- to 10 fold
